The values below come from US11813306B2, “Cyclic tetramer compounds as proprotein convertase subtilisin/kexin type 9 (PCSK9) inhibitors for the treatment of metabolic disorders” (NOVARTIS AG, priority 2018, dated 2023).

Structures can show the parent of a compound that is named as a salt. Where two headings read alike, the source gives them in different places.

For data set [1] the following is noted: amide bond, DCM.
A further data set addresses human PCSK9 (Homo sapiens, UniProt Q8NBP7). Description: PCSK9 ligand binding assay (TR-FRET): interference with binding of human PCSK9 to human LDLR. The settings on record: for IC50: Human PCSK9 Alexa Fluor 647 / Human LDLR extracellular domain-Europium Kryptate; for Max % inhibition: efficacy (Amax), 100% = 1 uM unlabeled human PCSK9, 0% = DMSO. The procedure, abridged:
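Read-out was TR-FRET ratio (665 nm over 615 nm, 330 nm excitation) between Alexa Fluor 647-human PCSK9 (16 nM added) and Europium Kryptate-human LDLR ectodomain (4 nM added). Compound and PCSK9 were mixed 30 min before LDLR, then incubated 2 h. Inhibition was normalised to DMSO and unlabelled-PCSK9 controls, giving IC50 and Amax.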
(In general: In TR-FRET formats the signal depends on donor and acceptor labels being close together.)

By IC50 is commonly meant the concentration needed to halve the response being measured.

Chain of human PCSK9 (Q8NBP7 153-692): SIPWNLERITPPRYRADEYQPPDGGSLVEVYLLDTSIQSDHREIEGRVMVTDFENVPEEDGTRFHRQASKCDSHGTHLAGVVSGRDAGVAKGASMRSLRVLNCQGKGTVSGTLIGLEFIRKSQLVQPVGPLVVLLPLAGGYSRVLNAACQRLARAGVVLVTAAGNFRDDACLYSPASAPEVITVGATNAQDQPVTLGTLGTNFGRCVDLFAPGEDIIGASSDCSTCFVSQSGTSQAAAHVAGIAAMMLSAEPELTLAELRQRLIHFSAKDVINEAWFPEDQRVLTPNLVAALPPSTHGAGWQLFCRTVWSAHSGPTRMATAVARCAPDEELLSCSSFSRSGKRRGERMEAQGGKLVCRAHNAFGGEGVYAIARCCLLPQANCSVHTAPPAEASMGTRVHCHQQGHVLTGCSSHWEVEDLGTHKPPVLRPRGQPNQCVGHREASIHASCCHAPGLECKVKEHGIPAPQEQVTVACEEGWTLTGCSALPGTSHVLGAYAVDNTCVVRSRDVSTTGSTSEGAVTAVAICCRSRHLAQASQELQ
Chain of human PCSK9 (Q8NBP7 31-152 partner limits assumed): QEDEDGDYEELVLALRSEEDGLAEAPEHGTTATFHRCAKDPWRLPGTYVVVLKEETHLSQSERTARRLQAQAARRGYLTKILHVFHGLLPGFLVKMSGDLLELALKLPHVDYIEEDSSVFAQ

The compound `COC[C@@H]1NC(=O)[C@H](C)N(Cc2c(F)cc(Cl)cc2Oc2ccc(-c3cnc(CN(C(=O)OC(C)(C)C)C(C)(C)C)n3C)cc2)C(=O)C[C@@H](C2CC(F)(F)C2)C(=O)N2CCC[C@@](Cc3ccc(Cl)cc3)(C2)N(C)C1=O` returned a ring closure, yield of all isomers in data set [1] (from COC[C@H](NC(=O)[C@H](C)NCc1c(F)cc(Cl)cc1Oc1ccc(-c2cnc(CN(C(=O)OC(C)(C)C)C(C)(C)C)n2C)cc1)C(=O)N(C)[C@@]1(Cc2ccc(Cl)cc2)CCCN(C(=O)[C@@H](CC(=O)O)C2CC(F)(F)C2)C1, HATU, 1.82 mM, 42.0 °C) of 86%. Regarding `C[C@H]1C(=O)N2[C@@H](COC2(C)C)C(=O)N[C@@]2(Cc3ccc(Cl)cc3)CCCN(C2)C(=O)[C@H](Cc2ccccc2)CC(=O)N1Cc1ccc(Cl)cc1Oc1ccc(-c2cnc(CN(C)C)n2C)cc1`, the ring closure, yield of all isomers in data set [1] (from C[C@H](NCc1ccc(Cl)cc1Oc1ccc(-c2cnc(CN(C)C)n2C)cc1)C(=O)N1[C@H](C(=O)N[C@@]2(Cc3ccc(Cl)cc3)CCCN(C(=O)[C@@H](CC(=O)O)Cc3ccccc3)C2)COC1(C)C, HATU, 1.04 mM, 45.0 °C) turned out to be 69%. `C[C@H]1C(=O)N[C@@H](CO)C(=O)N(C)[C@@]2(Cc3ccc(Cl)cc3)CCCN(C2)C(=O)[C@H](Cc2cccc[n+]2[O-])CC(=O)N1Cc1c(F)cc(Cl)cc1Oc1ccc(-c2cnc(CN(C)C)n2C)cc1` had a ring closure, yield of all isomers in data set [1] (from C[C@H](NCc1c(F)cc(Cl)cc1Oc1ccc(-c2cnc(CN(C)C)n2C)cc1)C(=O)N[C@@H](CO)C(=O)N(C)[C@@]1(Cc2ccc(Cl)cc2)CCCN(C(=O)[C@@H](CC(=O)O)Cc2cccc[n+]2[O-])C1, HATU/HOAt/2,6-lutidine, 1.08 mM, 48.0 °C, 4.0 h) of 98.8%. Consider `C[C@H]1C(=O)N[C@@H](CO)C(=O)N(C)[C@@]2(Cc3ccc(Cl)cc3)CCCN(C2)C(=O)[C@H](Cc2cccc[n+]2[O-])CC(=O)N1Cc1ccc(Cl)cc1Oc1ccc(-c2cnc(CN(C)C)n2C)cc1`, for which the ring closure, yield of all isomers in data set [1] (from C[C@H](NCc1ccc(Cl)cc1Oc1ccc(-c2cnc(CN(C)C)n2C)cc1)C(=O)N[C@@H](CO)C(=O)N(C)[C@@]1(Cc2ccc(Cl)cc2)CCCN(C(=O)[C@@H](CC(=O)O)Cc2cccc[n+]2[O-])C1, HATU, 0.83 mM, 48.0 °C, 4.0 h) turned out to be 100%. `C[C@H]1C(=O)N[C@@H](CO)C(=O)N[C@@]2(Cc3ccc(Cl)cc3)CCCN(C2)C(=O)[C@H](Cc2cccc[n+]2[O-])CC(=O)N1Cc1ccc(Cl)cc1Oc1ccc(-c2cnc(CN3CCCC3)n2C)cc1` returned a ring closure, yield of all isomers in data set [1] (from C[C@H](NCc1ccc(Cl)cc1Oc1ccc(-c2cnc(CN3CCCC3)n2C)cc1)C(=O)N1[C@H](C(=O)N[C@@]2(Cc3ccc(Cl)cc3)CCCN(C(=O)[C@@H](CC(=O)O)Cc3cccc[n+]3[O-])C2)COC1(C)C, HATU, 1.72 mM, 48.0 °C, 19.0 h, 2 steps) of 33.3%. With `COC[C@@H]1NC(=O)[C@H](C)N(Cc2c(F)cc(Cl)cc2Oc2ccc(-c3cnc(CN(C)C)n3C)cc2)C(=O)C[C@@H](Cc2cccc(C)[n+]2[O-])C(=O)N2CCC[C@@](Cc3ccc(Cl)cc3)(C2)N(C)C1=O` [Compound 168, 2-(((3R, 7S, 10S, 13R)-6-(4-chloro-2-(4-(2-((dimethylamino)methyl)-1-methyl-1H-imidazol-5-yl)phenoxy)-6-fluorobenzyl)-13-(4-chlorobenzyl)-10-(methoxymethyl)-7,12-dimethyl-2,5,8,11-tetraoxo-1,6,9,12-tetraazabicyclo[11.3.1]heptadecan-3-yl)methyl)-6-methylpyridine 1-oxide], at human PCSK9, the half-maximal inhibitory concentration (IC50) was 0.81 nM and the Max % inhibition is on record as 114.9%.

Consider `COC[C@@H]1NC(=O)[C@H](C)N(Cc2c(F)cc(Cl)cc2Oc2ccc(-c3cnc(CN(C)C(C)(C)C)n3C)cc2)C(=O)C[C@@H](C2CC(F)(F)C2)C(=O)N2CCC[C@@](Cc3ccc(Cl)cc3)(C2)N(C)C1=O` [Compound 169, (3S, 7S, 10S, 13R)-6-(2-(4-(2-((tert-butyl(methyl)amino)methyl)-1-methyl-1H-imidazol-5-yl)phenoxy)-4-chloro-6-fluorobenzyl)-13-(4-chlorobenzyl)-3-(3,3-difluorocyclobutyl)-10-(methoxymethyl)-7,12-dimethyl-1,6,9,12-tetraazabicyclo[11.3.1]heptadecane-2,5,8,11-tetraone], for which, at human PCSK9, the IC50 was 0.85 nM and the Max % inhibition is 113.1%. Turning to `Cc1cccc(C[C@@H]2CC(=O)N(Cc3c(F)cc(Cl)cc3Oc3ccc(-c4cnc(CN(C)C)n4C)cc3)[C@@H](C)C(=O)N[C@@H](CO)C(=O)N(C)[C@@]3(Cc4ccc(Cl)cc4)CCCN(C3)C2=O)n1` [Compound 170, (3R,7S,10S,13R)-6-(4-chloro-2-(4-(2-((dimethylamino)methyl)-1-methyl-1H-imidazol-5-yl)phenoxy)-6-fluorobenzyl)-13-(4-chlorobenzyl)-10-(hydroxymethyl)-7,12-dimethyl-3-((6-methylpyridin-2-yl)methyl)-1,6,9,12-tetraazabicyclo[11.3.1]heptadecane-2,5,8,11-tetraone], on human PCSK9, the 50% inhibitory concentration (IC50) came out at 0.73 nM and the Max % inhibition turned out to be 115.0%. For `COC[C@@H]1NC(=O)[C@H](C)N(Cc2c(F)cc(Cl)cc2Oc2ccc(-c3cnc(CN(C)C)n3C)nc2)C(=O)C[C@@H](C2CC(F)(F)C2)C(=O)N2CCC[C@@](Cc3ccc(Cl)cc3)(C2)N(C)C1=O` [Compound 171], at human PCSK9, the IC50 turned out to be 1.03 nM and the Max % inhibition came out at 107.8%. `CNCc1ncc(-c2ccc(Oc3cc(Cl)cc(F)c3CN3C(=O)C[C@@H](CC(F)(F)F)C(=O)N4CCC[C@@](Cc5ccc(Cl)cc5)(C4)N(C)C(=O)[C@H](COC)NC(=O)[C@@H]3C)cc2)n1C` [Compound 172, (3S, 7S, 10S, 13R)-6-(4-chloro-2-fluoro-6-(4-(1-methyl-2-((methylamino)methyl)-1H-imidazol-5-yl)phenoxy)benzyl)-13-(4-chlorobenzyl)-10-(methoxymethyl)-7,12-dimethyl-3-(2,2,2-trifluoroethyl)-1,6,9,12-tetraazabicyclo[11.3.1]heptadecane-2,5,8,11-tetraone]: on human PCSK9, the IC50 amounted to 0.57 nM and the Max % inhibition is 104.8%. Take `COC[C@@H]1NC(=O)[C@H](C)N(Cc2c(F)cc(Cl)cc2Oc2ccc(-c3cnc(CN(C)C)n3C)nc2)C(=O)C[C@@H](CC(F)(F)F)C(=O)N2CCC[C@@](Cc3ccc(Cl)cc3)(C2)N(C)C1=O` [Compound 173]: on human PCSK9, the half-maximal inhibitory concentration (IC50) amounted to 1.37 nM and the Max % inhibition is 107.7%. Consider `COC[C@@H]1NC(=O)[C@H](C)N(Cc2c(F)cc(Cl)cc2Oc2ccc(-c3cnc(CN(C)C)n3C)cc2)C(=O)C[C@@H](C2CCOCC2)C(=O)N2CCC[C@@](Cc3ccc(Cl)cc3)(C2)N(C)C1=O` [Compound 174, (3S, 7S, 10S, 13R)-6-(4-chloro-2-(4-(2-((dimethylamino)methyl)-1-methyl-1H-imidazol-5-yl)phenoxy)-6-fluorobenzyl)-13-(4-chlorobenzyl)-10-(methoxymethyl)-7,12-dimethyl-3-(tetrahydro-2H-pyran-4-yl)-1,6,9,12-tetraazabicyclo[11.3.1]heptadecane-2,5,8,11-tetraone], for which, on human PCSK9, the half-inhibitory concentration (IC50) amounted to 2.2 nM and the Max % inhibition was determined as 110.7%.

Regarding `C[C@H]1C(=O)N[C@@H](COC(F)F)C(=O)N(C)[C@@]2(Cc3ccc(Cl)cc3)CCCN(C2)C(=O)[C@H](CC(F)(F)F)CC(=O)N1Cc1c(F)cc(Cl)cc1Oc1ccc(-c2cnc(CN(C)C)n2C)cc1` [Compound 175, (3S, 7S, 10S, 13R)-6-(4-chloro-2-(4-(2-((dimethylamino)methyl)-1-methyl-1H-imidazol-5-yl)phenoxy)-6-fluorobenzyl)-13-(4-chlorobenzyl)-10-((difluoromethoxy)methyl)-7,12-dimethyl-3-(2,2,2-trifluoroethyl)-1,6,9,12-tetraazabicyclo[11.3.1]heptadecane-2,5,8,11-tetraone], on human PCSK9, the 50% inhibitory concentration (IC50) stood at 2.56 nM and the Max % inhibition was determined as 114.7%. As to `COC[C@@H]1NC(=O)[C@@H](C)N(Cc2c(F)cc(Cl)cc2Oc2ccc(-c3cnc(CN(C)C)n3C)nc2)C(=O)C[C@@H](CC(F)(F)F)C(=O)N2CCC[C@@](Cc3ccc(Cl)cc3)(C2)N(C)C1=O` [Compound 176, (3S, 7R, 10S, 13R)-6-(4-chloro-2-((6-(2-((dimethylamino)methyl)-1-methyl-1H-imidazol-5-yl)pyridin-3-yl)oxy)-6-fluorobenzyl)-13-(4-chlorobenzyl)-10-(methoxymethyl)-7,12-dimethyl-3-(2,2,2-trifluoroethyl)-1,6,9,12-tetraazabicyclo[11.3.1]heptadecane-2,5,8,11-tetraone], on human PCSK9, the IC50 came to 76.3 nM and the Max % inhibition was determined as 86.3%. The like results for `CNCc1ncc(-c2ccc(Oc3cc(Cl)cc(F)c3CN3C(=O)C[C@@H](CC(F)(F)F)C(=O)N4CCC[C@@](Cc5ccc(Cl)cc5)(C4)N(C)C(=O)[C@H](CO)NC(=O)[C@@H]3C)cc2)n1C` [Compound 177, (3S,7S,10S,13R)-6-(4-chloro-2-fluoro-6-(4-(1-methyl-2-((methylamino)methyl)-1H-imidazol-5-yl)phenoxy)benzyl)-13-(4-chlorobenzyl)-10-(hydroxymethyl)-7,12-dimethyl-3-(2,2,2-trifluoroethyl)-1,6,9,12-tetraazabicyclo[11.3.1]heptadecane-2,5,8,11-tetraone trifluoroacetate] were, in that order, 52.7 nM and 108.8%. The like results for `CN(C)Cc1ncc(-c2ccc(Oc3cc(Cl)ccc3CN3C(=O)C[C@@H](Cc4ccccc4)C(=O)N4CCC[C@@](Cc5ccc(Cl)cc5)(C4)NC(=O)[C@H](CO)NC(=O)[C@@H]3CCN)cc2)n1C` [Compound 178, (3R,7S,10S,13R)-7-(2-aminoethyl)-3-benzyl-6-(4-chloro-2-(4-(2-((dimethylamino)methyl)-1-methyl-1H-imidazol-5-yl)phenoxy)benzyl)-13-(4-chlorobenzyl)-10-(hydroxymethyl)-1,6,9,12-tetraazabicyclo[11.3.1]heptadecane-2,5,8,11-tetraone] were, in that order, 2.66 nM and 104.3%.
